Earlier results on two compounds are cited in patent EP1019029B1, “MONOLITHIC SYSTEM CONTAINING ONE OR MORE DRUGS, CONSISTING OF THREE LAYERS WITH DIFFERENT RELEASE MECHANISMS” (CHIESI FARMACEUTICI S.p.A., priority 1997, dated 1999).

Read-outs that look alike come from different tables or passages of the source.

Take `C[C@@](Cc1ccc(O)c(O)c1)(NN)C(=O)O` [Carbidopa]: the water solubilities (at 37°C) is 2.5 mg/mL.

For `COC(=O)[C@@H](N)Cc1ccc(O)c(O)c1` [Levodopa methyl ester], the water solubilities (at 20°C) is 500 mg/mL.
